Data taken from paper PMC7308271, “Discovery of a new class of orthosteric antagonists with nanomolar potency at extrasynaptic GABAA receptors” (Scientific Reports, 2020).
One block for each compound: values may come before it.

Legend:
[1] = tested on: MDR1 (P-glycoprotein); test: Bidirectional membrane permeability in MDR1-MDCK cells; assay type: in vitro ADME, canine; conditions: dog, both before and after
Protocol: (§1) Bidirectional permeability was tested for 018 and 2027 in the Madin-Darby canine kidney (MDCK) cell line expressing human multidrug resistance protein (MDR1, P-glycoprotein) (referred to as MDR1-MDCK cells) as described previously. To calculate efflux ratio the permeability in the basal-to-apical direction was divided by the permeability in the apical-to-basal direction. The obtained data is from triplicate measurements.

[2] = tested on: MDR1 (P-glycoprotein), human; test: as above; assay type: in vitro ADME, canine; conditions: dog, triplicate, read-out: basal to apical permeability
Protocol: as §1

[3] = target: T1, human α4β1δ receptors in δ-HEK cells (Homo sapiens, UniProt P18505+P48169); test: Whole-cell patch-clamp electrophysiology, kinetic studies of GABA activation after 018 pre-application; assay type: cell-based
T1 construct: expressed in transfected cells; host or cells: δ-HEK (HEK293 Flp-In stably expressing human δ), transiently transfected with α4 and β1 1:1
Protocol: δ-HEK cells transiently expressing human α4β1δ receptors were seeded in 35 mm Petri dishes the day before experiment and used for recordings in a similar was as previously reported. On the day of experiment the dishes were transferred to the stage of an Axiovert 10 microscope (Zeiss, Germany), and the culture medium was exchanged for artificial balanced salt solution (ABBS) at room temperature (20−24 °C). The ABSS solution contained the following (in mM): NaCl 140, KCl 3.5, Na2HPO4 1.25, MgSO4 2, CaCl2 2, glucose 10, and HEPES 10; pH 7.35. The cells were viewed at 200× magnification, and cells containing green fluorescent protein were visualized with UV light from an HBO 50 lamp (Zeiss, Germany). The cells were approached with micropipettes of 1.2−3.3 MΩ resistance manufactured from 1.5 mm OD glass (World Precision Instruments, Sarasota, Florida) on a microelectrode puller, model PP-830 (Narishige, Tokyo, Japan). The intrapipette solution contained the following (in mM): KCl 140, MgCl2 1, CaCl2 1, EGTA 10, MgATP 2, and HEPES 10; pH 7.3. Standard patch-clamp techniques in voltage clamp mode[44] were used to record from cells in the whole-cell configuration using an EPC-9 amplifier (HEKA, Lambrecht, Germany). A clamping potential of −60 mV was used, and series resistance was 80% compensated. Whole-cell currents were recorded and subsequently analyzed using Pulse and PulseFit software (HEKA, Lambrecht, Germany).
ABSS solution containing the compounds were applied using two VC3–8xP pressurized application systems feeding into a sixteen-barreled perfusion pipette (ALA Scientific Instruments Inc., Farmingdale New York, USA) ending approximately 100 μm from the recorded cell. Between the compound applications, compound-free ABSS was applied from one of the barrels in order to quickly remove the compounds from the cell. […] The cells were left to recover for 1 min before the next application.
Current relaxations were fitted to a single or biexponential equation using a Simplex optimization algorithm (PulseFit; HEKA, Lambrecht, Germany). I(t)=I0+I1exp−t/τ1+I2exp−t/τ2
With I denoting the currents at a time t and τ1 and τ2 the time constants. All curve-fitting results were carefully inspected visually. In some cases, the current relaxations were fitted to both a mono- and a biexponential function and an F-test was applied to the residual sum of squares to determine the appropriateness of using a second component: F=(SSA−SSB)dfB/SSB(dfA−dfB)=(RMSA2−RMSB2)dfB/RMSB2(dfA−dfB) where SS and RMS are the sum of squares and root mean square deviation between fit and data, respectively. A and B refer to the single and biexponential fit, respectively. df represents the degree of freedom for each fit. Time constants were given as medians followed by the 25–75% percentile in square brackets.

[4] = target: [^3H]muscimol binding (GABAΑ receptors) in rat brain cortical homogenate; test: [3H]muscimol radioligand binding in rat cortical homogenate; conditions: for Ki: 5 nM [^3H]muscimol, n = 4; for pKi ± SEM: [^3H]muscimol
Protocol: The binding studies were performed using rat brain homogenate prepared from the cortex of adult Sprague-Dawley male rats (250–350 g) obtained from commercial breeders (Janvier Laboratories, Le Genest-Saint-Isle, France), housed and cared for according to the Danish legislation regulating animal experiments and the European Communities Council Directive (2010/63/EU). Homogenate preparation was performed as described earlier. On the day of assay, membranes stored at −20 °C was quickly thawed followed by addition of 40 volumes of ice-cold binding buffer (50 mM TRIS-HCl buffer; pH 7.4) and homogenization using and UltraTurrax homogenizer before being centrifuged at 48,000 ×g for 10 minutes at 4 °C. This washing procedure was repeated 4 times before the final pellet was suspended in the binding buffer to final concentration of approximately 0.5 mg/mL protein.
The radioligand binding assay was performed using [^3H]muscimol in a 96-well format. [^3H]muscimol (5 nM) was incubated with 75 μg/well protein with or without test compound or control at 0 °C for 1 hour in a total volume of 200 μL binding buffer in triplicates. […] After incubation, the binding reaction was terminated by rapid filtration through GF/C unifilters (PerkinElmer) with the use of a 96-well Packard FilterMate cell harvester (PerkinElmer), followed by 3 times washing in 250 μL ice-cold binding buffer. After drying at 65 °C, microscintillation fluid was added to the dried filters and the radioactivity bound to the filter was quantified in a Packard TopCounter microplate scintillation counter. The obtained binding data was converted into specific binding (% of control) for each data point and fitted to the one-site competition model by […] (GraphPad Prism, version 8.2.1). The fitted IC50 values were converted into Ki values by means of the Cheng-Prusoff equation[46]. Data are from three independent experiments, performed with three technical replicates and Ki values are given as pKi ± SEM.

[5] = 100 μM GABA, 3 nM 018, biexponential fit
[6] = 100 μM GABA, 10 nM 018, biexponential fit
[7] = 100 μM GABA, 30 nM 018, biexponential fit
[8] = […] GABA, 10 nM 018, biexponential fit
[9] = […] GABA, 30 nM 018, biexponential fit, n = 5

T1 sequence (P48169 36-554): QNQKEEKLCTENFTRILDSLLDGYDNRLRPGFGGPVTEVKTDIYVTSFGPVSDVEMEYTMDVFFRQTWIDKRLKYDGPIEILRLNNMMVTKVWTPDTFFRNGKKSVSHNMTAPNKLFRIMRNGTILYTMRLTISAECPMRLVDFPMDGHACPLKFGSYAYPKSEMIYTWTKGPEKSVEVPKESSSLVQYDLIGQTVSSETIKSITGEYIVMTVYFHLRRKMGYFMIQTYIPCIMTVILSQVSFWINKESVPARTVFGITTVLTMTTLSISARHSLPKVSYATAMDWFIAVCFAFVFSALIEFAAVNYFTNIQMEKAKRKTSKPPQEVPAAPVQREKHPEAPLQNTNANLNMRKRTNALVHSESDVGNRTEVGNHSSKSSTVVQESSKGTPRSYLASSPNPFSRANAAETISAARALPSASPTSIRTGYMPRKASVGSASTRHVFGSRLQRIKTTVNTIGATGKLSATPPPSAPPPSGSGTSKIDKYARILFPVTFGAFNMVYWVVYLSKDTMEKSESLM
T1 sequence (P18505 26-474): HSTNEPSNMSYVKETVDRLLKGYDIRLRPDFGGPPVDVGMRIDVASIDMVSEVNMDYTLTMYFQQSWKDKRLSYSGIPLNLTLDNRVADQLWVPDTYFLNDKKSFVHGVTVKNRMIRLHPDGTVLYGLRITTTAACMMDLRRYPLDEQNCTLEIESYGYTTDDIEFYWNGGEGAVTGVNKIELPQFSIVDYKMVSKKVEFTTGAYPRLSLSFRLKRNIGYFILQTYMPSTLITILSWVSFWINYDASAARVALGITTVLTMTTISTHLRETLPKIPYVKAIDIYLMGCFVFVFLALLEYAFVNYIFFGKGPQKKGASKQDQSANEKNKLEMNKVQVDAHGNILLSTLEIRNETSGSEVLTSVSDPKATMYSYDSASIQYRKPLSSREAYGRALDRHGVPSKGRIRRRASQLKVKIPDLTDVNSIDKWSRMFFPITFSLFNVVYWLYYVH
T1 sequence (O14764 25-452 partner): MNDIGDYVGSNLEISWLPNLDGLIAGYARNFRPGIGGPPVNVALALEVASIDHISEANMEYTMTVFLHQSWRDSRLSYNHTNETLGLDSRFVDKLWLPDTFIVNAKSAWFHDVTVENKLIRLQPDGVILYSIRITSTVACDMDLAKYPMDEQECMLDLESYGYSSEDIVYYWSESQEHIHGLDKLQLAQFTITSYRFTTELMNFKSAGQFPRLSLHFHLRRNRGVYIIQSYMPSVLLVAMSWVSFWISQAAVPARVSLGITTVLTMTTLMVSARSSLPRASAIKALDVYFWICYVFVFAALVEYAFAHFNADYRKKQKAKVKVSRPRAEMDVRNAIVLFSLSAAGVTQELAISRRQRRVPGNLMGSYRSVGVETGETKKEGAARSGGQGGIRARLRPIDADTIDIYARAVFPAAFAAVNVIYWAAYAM

recovery [1]: > 85% | Papp B→A [2]: 7.9 nm/s | t1 ([3]; 100 μM GABA, 0.1 nM 018, monoexponential fit): 37.1 ms | %A1 ([3]; 100 μM GABA, 3 nM 018): 81.5% | t1 [3, 5]: 29.6 ms | t2 [3, 5]: 1070 ms | %A1 ([3]; 100 μM GABA, 10 nM 018): 33.9% | t1 [3, 6]: 41.4 ms | t2 [3, 6]: 2170 ms | %A1 ([3]; 100 μM GABA, 30 nM 018): 7.5% | t1 [3, 7]: 34.0 ms | t2 [3, 7]: 3685 ms | τ1 (ms) ([3]; […] GABA, 0.1 nM 018, monoexponential fit): 119 [101;167]^a ms | τ2 (ms) ([3]; […] GABA, 3 nM 018, biexponential fit): 1090 [960;2180] — ms | τ1 (ms) ([3]; […] GABA, 3 nM 018, biexponential fit, n = 7): 147 [115;183] ms | %A1 ([3]; […] GABA, 3 nM 018, fast component share of total current): 83.8 — % | τ1 (ms) ([3]; […] GABA, 3 nM 018, monoexponential fit, n = 3): 123 [73.3;273] ms | %A1 ([3]; […] GABA, 10 nM 018): 39.6% | τ1 (ms) [3, 8]: 107 [57.5;180] ms | τ2 (ms) [3, 8]: 2170 [1970;3010] ms | %A1 ([3]; […] GABA, 30 nM 018): 8.3 — % | τ1 [3, 9]: 68.0 ms | τ1 (ms) [3, 9]: 68.0 [56.3;106] — ms | τ2 (ms) [3, 9]: 3780 [3160;4710] ms | τ2 (ms) ([3]; […] GABA, 30 nM 018, monoexponential fit, n = 3): 4270 [4140;4920] ms | τ2 (ms) ([3]; […] GABA, 1000 nM 018, monoexponential fit): 3780 [3330;5350]^a ms | Ki [4]: 0.02 µM | pKi ± SEM [4]: 7.71 ± 0.06
SMILES: O=C(Nc1cccc(C(=O)N2CCC3(CCNCC3)CC2)c1)c1cccs1 [compound 018, N-(3-(3,9-diazaspiro[5.5]undecane-3-carbonyl)phenyl)thiophene-2-carboxamide]

SMILES: NCCCC(=O)O [GABA]
t1 (ms), activation time constant ([3]; 100 μM GABA alone (0 nM 018), monoexponential fit, median): 35.0 ms | τ (ms), activation time constant ([3]; […] GABA alone (0 nM 018), monoexponential fit, median [25–75% quartiles]): 174 [148;186]^a ms

recovery [1]: > 85% | Papp B→A [2]: 6.7 nm/s | Ki [4]: 0.56 µM | pKi ± SEM [4]: 6.25 ± 0.06
SMILES: CC(=O)Nc1cccc(C(=O)N2CCC3(CCNCC3)CC2)c1 [compound 2027, N-(3-(3,9-diazaspiro[5.5]undecane-3-carbonyl)phenyl)acetamide]
